Test results reported in patent US9347077B2, “Over-expression of a putative oxidoreductase (UcpA) for increasing furfural or 5-hydroxymethylfurfural tolerance” (UNIVERSITY OF FLORIDA RESEARCH FOUNDATION, INCORPORATED, priority 2011, dated 2016).

Tests used:
Type in all cases: cell-based, Escherichia coli
[1] = system: LY180(pTrc99A); assay: Furfural toxicity / MIC in tube cultures, vector control; conditions: Escherichia coli, 48 h, read-out: MIC of furfural
Description: (§1) Furfural toxicity was measured in tube cultures (13 mm by 100 mm) containing 4 ml of AM1 medium with 50 g liter^−1 xylose, 12.5 mg liter^−1 ampicillin, furfural, and other supplements as indicated (Miller et al., 2009a, b). Cultures were inoculated to an initial density of 22 mg dcw liter^−1. IPTG (0.1 mM) was included for fucO induction. Cell mass was measured at 550 nm after incubation for 48 h (37° C.). For cysteine supplement experiment, the culture condition was the same but included 0.1 mM cysteine as an amendment.
(§2) Derivatives of LY180 containing these plasmids were tested for furfural tolerance with (0.1 mM IPTG) and without IPTG induction using an MIC assay (Miller et al., 2009a; Miller et al., 2010; Wang et al., 2011b).

[2] = system: LY180; assay: pH-controlled batch fermentation (10% xylose)
[3] = system: LY180 (pLOI4856); assay: In vivo (whole cell) furfural reduction; conditions: plasmid copies of ucpA; similar to the vector control
Description: In vivo furfural reduction was measured during incubation in AM1 medium containing 10 mM furfural and 50 g liter^−1 xylose. Cells were pre-incubated with chloramphenicol (40 mg liter^−1) for 1 h to arrest growth (0.88 mg dcw cells ml^−1), prior to the addition of furfural. Furfural concentration was measured as previously described using a Beckman spectrophotometer DU800 (Martinez et al., 2000b).

[4] = system: LY180 (pLOI4856); assay: Furfural toxicity / MIC in tube cultures, ucpA plasmid; conditions: Escherichia coli, 48 h, read-out: MIC of furfural
Description: as §1, §2

O=Cc1ccco1 [furfural]
MIC [1]: 10 mM | Cell Yield ([2]; 8 mM furfural): 4.0 ± 0.1 g/L | Furfural-dependent slow growth μ ([2]; 8 mM furfural): 0.09 ± 0.01 h⁻¹ | μ Max ([2]; 8 mM furfural): 0.16 ± 0.01 h⁻¹ | Cell Yield ([2]; 10 mM furfural): 0.08 ± 0.02 g/L | Furfural-dependent slow growth Duration ([2]; 10 mM furfural): >72 h | Furfural-dependent slow growth μ ([2]; 10 mM furfural): <0.04 h⁻¹ | μ Max ([2]; 10 mM furfural): <0.04 h⁻¹ | Whole-cell specific activity (furfural reductase) [3]: < 0.10 U mg dcw^−1 | MIC [4]: 15 mM
